Source: patent publication US20230202975A1 (Recordati Industria Chimica e Farmaceutica S.p.A., priority 2021, published 2023)

How the values were obtained:
Assay type in all cases: physicochemical
[1] = Bulk density and tapped density (Ph. Eur. 2.9.34), Hausner ratio; conditions: average of three samples, after drying under vacuum
Experimental: Bulk density and Tapped density: were measured according to the method of pharmacopoeia (Ph. Eur. 2.9.34). 100 g of sample was weighed and then placed in the test tube, noting the apparent volume without any type of treatment to the sample. Afterwards, 10, 500 and 1250 taps are made using the automatic volumeter (Model: Schleuniger JV2000, Equipment code: CE9), noting the apparent volumes obtained in these three tests. In the event that the difference between the volume obtained for the 500 and 1250 taps was greater than 2 ml, the operation was repeated in increments of 1250 taps until the difference within measurements is less than or equal to 2 ml. For each batch the test was carried out in duplicate.
The bulk density and tapped density were calculated according to the following equations: […]
where m is the amount of sample weighed expressed in grams and V0 is the apparent uncompacted volume expressed in milliliters. Tapped density:
Another parameter relevant for evaluating powder flowability is the Hausner ratio namely the ratio between tapped and bulk densities. Generally, a Hausner ratio of higher than 1.50 indicates a very poor flowability (Powder properties in food production systems, Handbook of Food Powders, Ed.: Bhesh Bhandari, Nidhi Bansal, Min Zhang, Pierre Schuck, Woodhead Publishing, 2013, chapter 12, page 298).

[2] = Particle size distribution (laser particle size analyser, Ph. Eur. 2.9.31)
Experimental: Particle size distribution was evaluated in line with European Pharmacopeia 2.9.31 with the instrument and according to sample preparation and test conditions reported in the following Table 3: […]

[3] = pH of aqueous solution (potentiometric); conditions: 100 mg of sample dissolved in 10 ml of water
Experimental: Keys: ^1 pH was determined potentiometncally on a solution of 100 mg of sample dissolved in 10 ml of water; HPLC purity is expressed as area percentage (area of the peak/total area×100); DMT: 2,2-dimethylthiazolidine.

Compound | Particle Size, compliance with specification D50 <150 mic [2] | Particle Size, compliance with specification D90 <450 mic [2] | further results
NCCS.O=C(O)C(O)C(O)C(=O)O (stereo not shown) [Example 10B, Cysteamine Bitartrate, reference compound] |  |  | Bulk density ([1]; listed as Cysteamine Bitartrate crystallized according to the prior art process (direct ad)): 0.279 g/mL; Bulk density ([1]; listed as Ex. 10B): 0.279 g/mL; Tapped density ([1]; listed as Ex. 10B): 0.442 g/mL
NCCS.O=C(O)C(O)C(O)C(=O)O (stereo not shown) [Example C1, Cysteamine Bitartrate] | ~65% | (100%) | 
NCCS.O=C(O)C(O)C(O)C(=O)O (stereo not shown) [Example C3, Cysteamine Bitartrate] | ~53% | (100%) | 
Cysteamine Bitartrate [Example 2] |  |  | pH [3]: 3.53
NCCS.O=C(O)C(O)C(O)C(=O)O (stereo not shown) [Example C2, Cysteamine Bitartrate] | ~55% | (100%) | 
NCCS.O=C(O)C(O)C(O)C(=O)O (stereo not shown) [Example R2, Cysteamine Bitartrate] | (100%) | (100%) | 
NCCS.O=C(O)C(O)C(O)C(=O)O (stereo not shown) [Example 10A, Cysteamine Bitartrate] |  |  | Bulk density ([1]; listed as Cysteamine Bitartrate crystallized according to the process of the present inven): 0.301 g/mL; Bulk density ([1]; listed as Ex. 10A): 0.301 g/mL; Tapped density ([1]; listed as Ex. 10A): 0.423 g/mL
NCCS.O=C(O)C(O)C(O)C(=O)O (stereo not shown) [Example R1, Cysteamine Bitartrate] | (100%) | (100%) | 
NCCS.O=C(O)C(O)C(O)C(=O)O (stereo not shown) [Example R3, Cysteamine Bitartrate] | (100%) | (100%) | 
